Test results published in patent US20120065170A1, “Antimicrobial Cyclocarbonyl Heterocyclic Compounds For Treatment Of Bacterial Infections” (priority 2010, published 2012).
≈ marks a conversion by molar mass, not a printed value. Where two headings read alike, the source gives them in different places.

Experiments:
reticulocytes = test: 5-days mouse sub-acute toxicity test (myelosuppression, reticulocyte count); assay type: in vivo; conditions: for Ratio for reticulocyte count relative to that for compound of Example 1 / fold drop in the reticulocyte cells counts compared to compound of Example 1: 37.5 mg/kg/day twice-daily, day 5
Protocol: The potential of representative compounds of this invention for myelosuppression has been evaluated in a 5-days mouse sub-acute toxicity test. For comparison purposes, Reference Compound 14 (Example 143 of publication US 2003/0166620) and Reference Compound 15 (TR-700 or torezolid; publications PCT WO2005/058886 and PCT WO2010/042887) have been included. The compounds were dosed to mice at 37.5 mg/kg/day on a twice-daily schedule. On day 5, blood was harvested for hematology testing. The toxicity was evaluated based on the reduction in the number of reticulocytes, previously described as the key marker for myelosuppression signs in pre-clinical testing of oxazolidinones, including linezolid. Thus, a higher degree of a reduction in the reticulocyte count is indicative of an elevated toxicity, while a lower drop in the reticulocyte count indicates a reduced propensity to the myelosuppression effect on the blood cells.

[1] = system: linezolid-resistant E. faecium; test: MIC against linezolid-resistant E. faecium strains; assay type: cell-based, Enterococcus faecium; conditions: one value per group of strains; for MIC: Enterococcus faecium, read-out: E. faecium (no. of strains) MIC
Text: (§1) Compounds of this invention can have useful activity against a variety of pathogenic microorganisms. The in vitro activity of compounds of this invention can be assessed by standard testing procedures such as the determination of minimum inhibitory concentration (MIC) by agar dilution as described in “Approved Standard. Methods for Dilution Antimicrobial Susceptibility Tests for Bacteria That Grow Aerobically”, 3rd. ed., published 1993 by the National Committee for Clinical Laboratory Standards, Villanova, Pa., USA. Minimum inhibitory concentration (MIC) refers to the lowest concentration of drug (μg/mL) that inhibits visible growth of the organism. Lower MIC values indicate a higher antibacterial activity. Typically, compounds of the present invention have useful potency against Gram-positive or Gram-negative pathogens with MIC values of ≦8 μg/mL. To measure useful antibacterial activity against multiple bacterial isolates or strains, MIC90 (or minimal inhibitory concentration of the drug that inhibits visible growth of 90% of the microbes in each bacterial specie panel) is determined. Lower MIC number indicates an elevated degree of useful antibacterial activity, while higher MIC number indicates a reduced antibacterial activity. An agent with too high MIC against a bacterial pathogen can not be used for the treatment of infections caused by such microbial species.
(§2) The useful activity of representative compounds of the present invention against several isolates of linezolid-resistant Staphylococcus aureus, Enterococus faecalis and Enterococcu faecium illustrated by the MIC data of Table 2.

[2] = system: key Gram-positive pathogens; test: MIC against key Gram-positive pathogens, further compounds (tests of Table 1); assay type: cell-based; conditions: in the tests of Table 1
Text: as §1
(§3) The useful activity of compounds of the present invention against an expanded set of clinical isolates of Staphylococcus aureus (including methicillin-resistant strain, MRSA), Enterococci (including Enterococcus faecalis and Enterococus faecium), and […] is illustrated by the MIC90 data in Table 1.

S. aureus = test: MIC90 against linezolid-susceptible clinical isolates of S. aureus; assay type: cell-based, Staphylococcus aureus; conditions: for MIC90: Staphylococcus aureus, 34 strains, linezolid-susceptible, including MRSA
Text: as §1, §3

Enterococci = test: MIC90 against linezolid-susceptible Enterococci; assay type: cell-based; conditions: for MIC90: Enterococcus faecalis, 34 strains, linezolid-susceptible
Text: as §1, §3

S. pneumoniae = test: MIC90 against linezolid-susceptible S. pneumoniae; assay type: cell-based, Streptococcus pneumoniae; conditions: for MIC90: Streptococcus pneumoniae, read-out: S. pneumoniae (34 strains) MIC90
Text: as §1, §3

[3] = system: linezolid-resistant S. aureus; test: MIC against linezolid-resistant S. aureus strains; assay type: cell-based, Staphylococcus aureus; conditions: one value per group of strains; for MIC: Staphylococcus aureus, read-out: S. aureus (no. of strains) MIC
Text: as §1, §2

[4] = system: linezolid-resistant E. faecalis; test: MIC against linezolid-resistant E. faecalis strains; assay type: cell-based, Enterococus faecalis; conditions: one value per group of strains; for MIC: Enterococcus faecalis, read-out: E. faecalis (no. of strains) MIC
Text: as §1, §2

H. influenzae = test: MIC against isolates of H. influenzae; assay type: cell-based, Haemophilus influenzae; conditions: for MIC: Haemophilus influenzae
Text: as §1
The useful activity of representative compounds of the present invention against several isolates of H. influenzae is illustrated by the MIC data of Table 3. H. influenzae is a fastidious Gram-negative pathogen implicated in multiple infections, including pneumonia and bacterial meningitis. No oxazolidinone agent is presently approved for the treatment of H. influenzae infections.

Haemophilus influenzae = conditions: reported value; cited from earlier work
Staphylococcus species = conditions: cited from earlier work
[5] = system: linezolid-resistant bacterial strains; conditions: cited from earlier work
[6] = mice, 37.5 mg/kg/day on a twice-daily schedule, blood on day 5
[7] = 34 strains, linezolid-susceptible
[8] = one value per group of strains, read-out: H. influenzae (no. of strains) MIC
[9] = versus Reference Compound 15, Table 1 data
[10] = read-out: MIC values against H. influenzae as summarised in text, summary of Table 3

| Structure (SMILES) | Ratio for reticulocyte count relative to that for compound of Example 1 (reticulocytes; mice) | MIC [1] | MIC values compared to linezolid or Reference Compound 15 [2] | MIC90 (S. aureus) | MIC90 (Enterococci) | MIC [4] | MIC (H. influenzae; [8]) | H. influenzae (no. of strains) MIC (H. influenzae; one value per group of strains) | further results |
| --- | --- | --- | --- | --- | --- | --- | --- | --- | --- |
| CC(=O)NC[C@H]1CN(c2ccc(-c3ccc(N4CCOC4=O)nc3)c(F)c2)C(=O)O1 [Ref. Cpd. 14, N-[[(5S)-3-[3-fluoro-4-[6-(2-oxooxazolidin-3-yl)-3-pyridyl]phenyl]-2-oxo-oxazolidin-5-yl]methyl]acetamide] | 0.39 |  |  |  |  |  |  |  | Reticulocyte count on Day 5, cell count (reticulocytes; [6]): 5e+10 L⁻¹; fold drop in the reticulocyte cells counts compared to compound of Example 1 (reticulocytes; mice): ~2.6 fold |
| O=C1O[C@@H](CO)CN1c1ccc(-c2ccc(N3CCNC3=O)nc2)c(F)c1 [Example 7] |  | 0.5 µg/mL (≈ 1.34 µM) | lower range MIC values |  |  |  |  |  | E. faecium (no. of strains) MIC [1]: 1 (4 strains) μg/mL |
| CC(=O)NC[C@H]1CN(c2ccc(N3CCOCC3)c(F)c2)C(=O)O1 [Linezolid, linezolid] |  | 16 µg/mL (≈ 47.4 µM) |  | 2 µg/mL (≈ 5.93 µM) | 2 µg/mL (≈ 5.93 µM) | 16 µg/mL (≈ 47.4 µM) | 8 µg/mL (≈ 23.7 µM) | 16 (2 strains) μg/mL | MIC90 (S. pneumoniae; [7]): 1 µg/mL (≈ 2.96 µM); MIC [3]: 16 µg/mL (≈ 47.4 µM); S. aureus (no. of strains) MIC [3]: >16 (3 strains) μg/mL; MIC90 against Haemophilus influenzae (typical) (Haemophilus influenzae): 16 µg/mL (≈ 47.4 µM); MIC against Staphylococci species (such as S. aureus) (Staphylococcus species; generally displayed): 2 to 4 µg/mL; useful MIC90 against Gram-positive Staphylococcus species (Staphylococcus species; species for which the drug is indicated): 2 to 4 µg/mL; MICs against linezolid-resistant bacterial strains [5]: ≥ 8 µg/mL |
| O=C1O[C@@H](CO)CN1c1ccc(-c2ccc(N3CCOC3=O)nc2)cc1 [Example 13] |  |  | lower range MIC values |  |  |  | 4 µg/mL (≈ 11.3 µM) |  |  |
| O=C1O[C@@H](CO)CN1c1ccc(-c2ccc(N3CCOC3=O)nc2)c(F)c1 [Example 1] | 1 | 0.5 µg/mL (≈ 1.34 µM) |  | 0.125 µg/mL (≈ 0.335 µM) | 0.25 µg/mL (≈ 0.67 µM) | 0.5 µg/mL (≈ 1.34 µM) | 2 µg/mL (≈ 5.36 µM) | 4 (1 strain)^ μg/mL | MIC90 fold lower than Reference Compound 15, S. aureus (S. aureus; [9]): about 4 fold; MIC90 fold lower than linezolid, S. aureus (S. aureus; versus linezolid, Table 1 data): about 16 fold; MIC90 fold lower than Reference Compound 15, Enterococci species (Enterococci; [9]): ~2 fold; MIC90 fold lower than linezolid, Enterococci species (Enterococci; versus linezolid, Table 1 data): ~8 fold; MIC90 (S. pneumoniae; [7]): 0.06 µg/mL (≈ 0.161 µM); MIC90 fold lower than Reference Compound 15, S. pneumoniae (S. pneumoniae; [9]): about 4 fold; MIC90 fold lower than linezolid, S. pneumoniae (S. pneumoniae; versus linezolid, Table 1 data): about 16 fold; E. faecalis (no. of strains) MIC [4]: 1 (3 strains) μg/mL; MIC (H. influenzae; [10]): < 4 µg/mL; Reticulocyte count on Day 5, cell count (reticulocytes; [6]): 1.275e+11 L⁻¹ |
| O=C1O[C@@H](CO)CN1c1ccc(-c2ccc(N3CCCC3=O)nc2)c(F)c1 [Example 10] |  | 1 µg/mL (≈ 2.69 µM) | lower range MIC values |  |  | 1 µg/mL (≈ 2.69 µM) | 4 µg/mL (≈ 10.8 µM) |  | E. faecalis (no. of strains) MIC [4]: 2 (3 strains) μg/mL; MIC (H. influenzae; [10]): < 4 µg/mL |
| Cn1nnc(-c2ccc(-c3ccc(N4C[C@H](CO)OC4=O)cc3F)cn2)n1 [Ref. Cpd. 15, (5R)-3-[3-fluoro-4-[6-(2-methyltetrazol-5-yl)-3-pyridyl]phenyl]-5-(hydroxymethyl)oxazolidin-2-one] | 0.15 | 4 µg/mL (≈ 10.8 µM) |  | 0.5 µg/mL (≈ 1.35 µM) | 0.5 µg/mL (≈ 1.35 µM) | 4 µg/mL (≈ 10.8 µM) | > 16 µg/mL | 8 (4 strains) μg/mL | MIC90 (S. pneumoniae): 0.25 µg/mL (≈ 0.675 µM); MIC [3]: 8 µg/mL (≈ 21.6 µM); S. aureus (no. of strains) MIC [3]: 4 (2 strains) μg/mL; E. faecium (no. of strains) MIC [1]: 2 (1 strain)^ μg/mL; fold drop in the reticulocyte cells counts compared to compound of Example 1 (reticulocytes; mice): ~2.6 fold; Reticulocyte count on Day 5, cell count (reticulocytes; mouse, in vivo, 37.5 mg/kg/day, 5 days): 1.91e+10 L⁻¹ |
